From article PMC10321576, “Cyclic peptides target the aromatic cage of a PHD-finger reader domain to modulate epigenetic protein function” (Chemical Science, 2023)
Like-named read-outs stand apart in the source and are kept apart here. Blank lines part the entries; values can stand above or below the compound they belong to. Ends that are not written are not given here. Peptide text beside a SMILES is read from it.

Legend:
KDM7B dual domain = target: T1, KDM7B dual domain (Homo sapiens, UniProt Q9UPP1); assay: HDX-MS; type: binding; settings: relative to DMSO
T1 construct: dual domain (PHD-JmjC) of KDM7B; His-tag (C); made in house
Description: To further evaluate the interactions of OC9 with KDM7B we used hydrogen–deuterium exchange mass spectrometry (HDX-MS), which informs on protein dynamics by following deuterium incorporation into the protein amide backbone (Fig. 2).
The residue level view was generated by averaging mass changes across overlapping peptide fragments. Supporting data available in ESI. ^† K4me3 binding aromatic cage residues (‘YYMW’ Fig. 1a) are indicated by red asterix.

KDM7B PHD [1] = target: T2, KDM7B PHD (Homo sapiens, UniProt Q9UPP1); assay: BLI binding; set-up: key to BLI Screening, KDM7B PHD: (+) = binding; (-) = no binding; (NS) = non-specific; settings: for BLI Screening, KDM7B PHD: qualitative assessment of binding by BLI
T2 construct: KDM7B 1-66; made in house
T2 sequence (Q9UPP1 1-66 isoform Q9UPP1-2): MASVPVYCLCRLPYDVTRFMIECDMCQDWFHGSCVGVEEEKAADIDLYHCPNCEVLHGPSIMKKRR
Description: (§1) Figure S2. BLI for KDM7 proteins with cyclic peptides.
(§2) BLI traces for b inding to KDM7 protein domains immobilised by C-terminal His -tag on Ni -NTA
(§3) biosensors, against cyclic peptides. Response trace for each peptide concentration is represented by
(§4) a different colour, with the fitted curves overlaid in black.
(§5) concentration plotted, with 2-fold dilutions thereafter. Dual domain = PHD+JmjC. […]
(§6) against KDM7 and other protein domains. t1/2 = half life (0.693 / Koff)
(§7) (1 picture or pasted object on this page, not shown here)

KDM7B Dual = target: T3, KDM7B Dual (Homo sapiens, UniProt Q9UPP1); assay: ITC binding
T3 construct: Dual = PHD+JmjC; made in house
Experimental: Figure S10. ITC results: Tabulated values from 1:1 binding model and conditions
ITC buffer = 50 mM HEPES, 100 mM NaCl, pH 7.4, 0.2 µm filtered), at 25 °C. Dual = PHD+JmjC. HisTrx
= His 6+thioredoxin tag, GST = glutathione S -transferase tag, ZB = Z -basic tag. Syringe contained
peptide solution in buffer. Cell contained protein solution in buffer.
as §7

KDM7B Dual (PHD+JmjC) = target: T4, KDM7B Dual (PHD+JmjC) (Homo sapiens, UniProt Q9UPP1); assay: BLI binding; set-up: key to BLI Screening, KDM7B Dual: (+) = binding; (-) = no binding; (NS) = non-specific; settings: for koff / kon / Kd: 1:1 binding model; for Kd: His-tagged protein on Ni-NTA biosensors; for BLI Screening, KDM7B Dual: qualitative assessment of binding by BLI
T4 construct: Dual domain = PHD+JmjC; made in house
Description: as §1, §2, §3, §4, §5, §6, §7

KDM7B JmjC = target: T5, KDM7B JmjC (Homo sapiens, UniProt Q9UPP1); assay: BLI binding; set-up: key to BLI Screening, KDM7B JmjC: (+) = binding; (-) = no binding; (NS) = non-specific; settings: for Kd: read-out: BLI pKD, KDM7B JmjC (converted); for BLI Screening, KDM7B JmjC: qualitative assessment of binding by BLI
T5 construct: made in house
Description: as §1, §2, §3, §4, §5, §6, §7

KDM7B PHD [2] = target: T2, KDM7B PHD; assay: AlphaScreen displacement of H3 1-21K4me3-Bt; type: binding; settings: for reduced potency relative to OC9: affinity (BLI) and displacement (AS) assays, KDM7B PHD-finger
Description: The functional effect of OC9 on the PHD-finger was further assessed using an AlphaScreen (AS) based proximity assay. […]

KDM7A dual domain = KDM7A dual domain (Homo sapiens, UniProt Q6ZMT4); assay: MALDI-TOF-MS KDM7 activity assay (H3 peptide demethylation); type: biochemical
Experimental: Fig. 5 KDM7 PHD-finger inhibition by OC9 modulates dual domain JmjC activity. (a) (i–iii) OC9 inhibits demethylation of H3K9me2, with or without K4me3, by KDM7B (0.4 μM) on H3 peptide (2.5 μM). […] (b) (i–iii) OC9 enhances demethylation of H3K4me3K9me2 by KDM7A (0.55 μM) on H3 peptide (2.5 μM), and (iv) enhances KDM7A (0.5 μM) demethylation of calf histone extracts (50 μg). […] Inset MALDI-TOF-MS overlays are from respective highest OC9 concentration points compared to DMSO alone. KDM7 PHD-finger only proteins had no demethylase activity (Fig. S40 ^†). Calf histone H3K9me2 was quantitated relative to H4 band intensities at each time point, normalised to DMSO at t = 0. Full Western blots available in Fig. S42. ^† Relative rates (Krel min^−1) from a one-phase decay model, average from N = 3 independent experiments. […] The enzyme heading of the panel (KDM7B / KDM7A) was put in front of them. / DMSO is the vehicle control. Its printed rates (0.30 min^-1 in a, 0.04 min^-1 in b) are included because they are printed with its name.
In contrast to KDM7B, KDM7A lacks activity against H3K4me3K9me2, but demethylates H3_1–21K9me2.[57] OC9, however, restored the activity of KDM7A against H3_1–21K4me3K9me2 from <5% to a level (∼30%) that approached demethylation on H3_1–21K9me2 with DMSO alone (∼40%) (Fig. 5b and S39 ^†). […]

[3] = His-tagged protein on Ni-NTA biosensors, 1:1 binding model, read-out: BLI KD, KDM7B PHD

T5 sequence (Q9UPP1 231-387 limits assumed): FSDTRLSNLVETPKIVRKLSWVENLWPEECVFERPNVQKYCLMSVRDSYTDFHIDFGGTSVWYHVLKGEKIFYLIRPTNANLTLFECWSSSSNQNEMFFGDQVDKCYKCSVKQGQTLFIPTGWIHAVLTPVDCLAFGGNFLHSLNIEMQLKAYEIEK
T3 sequence (Q9UPP1 37-483 limits assumed): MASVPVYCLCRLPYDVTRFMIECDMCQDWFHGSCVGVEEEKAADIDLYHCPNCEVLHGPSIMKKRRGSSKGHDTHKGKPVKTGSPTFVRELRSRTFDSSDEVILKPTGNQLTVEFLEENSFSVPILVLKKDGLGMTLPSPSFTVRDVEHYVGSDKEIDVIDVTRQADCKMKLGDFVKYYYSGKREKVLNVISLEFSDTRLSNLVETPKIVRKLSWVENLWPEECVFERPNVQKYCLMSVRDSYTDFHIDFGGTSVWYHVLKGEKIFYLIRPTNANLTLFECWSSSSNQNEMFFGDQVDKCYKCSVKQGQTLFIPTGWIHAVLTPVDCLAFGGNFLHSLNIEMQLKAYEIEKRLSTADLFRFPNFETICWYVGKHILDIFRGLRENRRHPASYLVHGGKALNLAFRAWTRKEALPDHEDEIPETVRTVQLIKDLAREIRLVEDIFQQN
T4 sequence (Q9UPP1 37-483 limits assumed): as above
KDM7A dual domain, sequence (Q6ZMT4 38-480 limits assumed): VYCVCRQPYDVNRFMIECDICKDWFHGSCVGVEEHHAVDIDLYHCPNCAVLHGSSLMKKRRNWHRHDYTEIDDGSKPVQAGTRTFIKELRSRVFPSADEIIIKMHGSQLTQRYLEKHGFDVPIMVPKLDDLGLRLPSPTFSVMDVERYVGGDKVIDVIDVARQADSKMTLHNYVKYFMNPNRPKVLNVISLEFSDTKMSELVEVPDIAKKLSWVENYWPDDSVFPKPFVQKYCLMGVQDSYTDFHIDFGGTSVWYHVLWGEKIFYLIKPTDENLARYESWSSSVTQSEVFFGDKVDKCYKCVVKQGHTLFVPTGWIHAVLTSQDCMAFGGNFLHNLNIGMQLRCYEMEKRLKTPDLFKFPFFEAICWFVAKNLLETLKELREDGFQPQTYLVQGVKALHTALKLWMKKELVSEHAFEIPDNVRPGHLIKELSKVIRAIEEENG
T1 sequence (Q9UPP1 37-483 limits assumed): as the sequence (Q9UPP1 37-483 limits assumed) above

reduced potency relative to OC9 (KDM7B PHD [2]): > 100 fold
Compound: Ac-YYLTHPYPSVFRTC-NH2 (N-terminus and C-terminus assumed) [Linear]

Kd (KDM7B PHD [1]; [3]): > 1000 nM
BLI Screening, KDM7B PHD (KDM7B PHD [1]): -
koff (KDM7B Dual (PHD+JmjC)): 0.0124 ± 0.0001 s⁻¹
kon (KDM7B Dual (PHD+JmjC)): 212000 ± 2000 M⁻¹ s⁻¹
Kd (KDM7B Dual (PHD+JmjC)): 58.6 nM
BLI Screening, KDM7B Dual (KDM7B Dual (PHD+JmjC)): +
koff (KDM7B JmjC; 1:1 binding model): 0.0245 ± 0.0001 s⁻¹
kon (KDM7B JmjC; 1:1 binding model): 249000 ± 3000 M⁻¹ s⁻¹
Kd (KDM7B JmjC; 1:1 binding model): 100 nM
BLI Screening, KDM7B JmjC (KDM7B JmjC): +
Compound: CC[C@H](C)[C@@H]1NC(=O)[C@H](Cc2c[nH]c3ccccc23)NC(=O)[C@H](CO)NC(=O)[C@H](CC(C)C)NC(=O)[C@H](Cc2ccc(O)cc2)NC(=O)[C@H](Cc2ccc(O)cc2)NC(=O)[C@H]([C@@H](C)O)NC(=O)CNC(=O)[C@H](Cc2ccc(O)cc2)NC(=O)[C@H](C(C)C)NC(=O)[C@H](Cc2ccc(O)cc2)NC(=O)CSC[C@@H](C(N)=O)NC(=O)[C@@H]2CCCN2C1=O [OC4] (HELM PEPTIDE1{[O=C(C[*:3])[*:2]].Y.V.Y.G.T.Y.Y.L.S.W.I.P.C.[am]}$PEPTIDE1,PEPTIDE1,1:R3-14:R3$$$V2.0)

reduction in KD in BLI compared to OC9 (KDM7B PHD [1]): > 80 fold
reduction in t1/2 in BLI compared to OC9 (KDM7B PHD [1]): > 75 fold
reduction in IC50^AS compared to OC9 (KDM7B PHD [2]): 10 fold
Compound: CC(C)C[C@@H]1NC(=O)[C@H](CO)NC(=O)[C@@H]2CCCN2C(=O)[C@H](Cc2ccc(O)cc2)NC(=O)[C@@H]2CCCN2C(=O)[C@H](Cc2c[nH]cn2)NC(=O)[C@H]([C@@H](C)O)NC(=O)[C@H](CC(C)C)NC(=O)[C@H](Cc2ccc(O)cc2)NC(=O)[C@H](Cc2ccc(O)cc2)NC(=O)CSC[C@@H](C(N)=O)NC(=O)[C@H]([C@@H](C)O)NC(=O)[C@H](CCCNC(=N)N)NC(=O)[C@H](Cc2ccccc2)NC1=O [V10L] (HELM PEPTIDE1{[O=C(C[*:3])[*:2]].Y.Y.L.T.H.P.Y.P.S.L.F.R.T.C.[am]}$PEPTIDE1,PEPTIDE1,1:R3-15:R3$$$V2.0; C-terminus assumed)

faster off-rate by BLI (vs OC9) (KDM7B PHD [1]): ~100 ×
reduced potency relative to OC9 (KDM7B PHD [2]): much weaker
Compound: CC(C)C[C@@H]1NC(=O)[C@H](Cc2ccc(O)cc2)NC(=O)[C@H](Cc2ccc(O)cc2)NC(=O)CSC[C@@H](C(N)=O)NC(=O)[C@H]([C@@H](C)O)NC(=O)[C@H](C)NC(=O)[C@H](Cc2ccccc2)NC(=O)[C@H](C(C)C)NC(=O)[C@H](CO)NC(=O)[C@@H]2CCCN2C(=O)[C@H](Cc2ccc(O)cc2)NC(=O)[C@@H]2CCCN2C(=O)[C@H](Cc2c[nH]cn2)NC(=O)[C@H]([C@@H](C)O)NC1=O [R12A] (HELM PEPTIDE1{[O=C(C[*:3])[*:2]].Y.Y.L.T.H.P.Y.P.S.V.F.A.T.C.[am]}$PEPTIDE1,PEPTIDE1,1:R3-15:R3$$$V2.0; C-terminus assumed)

Continued, compound first:

Compound: CC[C@H](C)[C@@H]1NC(=O)[C@H](CC(C)C)NC(=O)[C@H](CCCNC(=N)N)NC(=O)[C@H](CCCNC(=N)N)NC(=O)[C@@H]2CCCN2C(=O)[C@H](Cc2ccc(O)cc2)NC(=O)[C@H](C(C)C)NC(=O)[C@H](CC(C)C)NC(=O)[C@H](CC(C)C)NC(=O)[C@H](C(C)C)NC(=O)[C@@H]2CCCN2C(=O)[C@H](Cc2ccc(O)cc2)NC(=O)CSC[C@@H](C(N)=O)NC1=O [OC3] (HELM PEPTIDE1{[O=C(C[*:3])[*:2]].Y.P.V.L.L.V.Y.P.R.R.L.I.C.[am]}$PEPTIDE1,PEPTIDE1,1:R3-14:R3$$$V2.0)
HDX-MS effect on deuterium uptake, KDM7B dual domain (KDM7B dual domain): affected deuterium uptake in both domains
Kd (KDM7B PHD [1]; [3]): > 1000 nM
BLI Screening, KDM7B PHD (KDM7B PHD [1]): -
Kd (KDM7B Dual; 50 mM HEPES, 100 mM NaCl, pH 7.4, 25 °C, 1:1 binding model): 163 nM
ITC ΔH, KDM7B Dual (KDM7B Dual; 25 °C): -16.3 ± 1.5 kJ mol -1
ITC N, KDM7B Dual (KDM7B Dual; stoichiometry): 1.37 ± 0.05
koff (KDM7B Dual (PHD+JmjC)): 0.0148 ± 0.0001 s⁻¹
kon (KDM7B Dual (PHD+JmjC)): 502000 ± 5000 M⁻¹ s⁻¹
Kd (KDM7B Dual (PHD+JmjC)): 29.5 nM
BLI Screening, KDM7B Dual (KDM7B Dual (PHD+JmjC)): +
Kd (KDM7B JmjC; 1:1 binding model): > 1000 nM
BLI Screening, KDM7B JmjC (KDM7B JmjC): -

Compound: YLVRIYPNKLIWWC (also: sidechain bridge or staple (positions not given here)) [OC6, enriched cyclic peptide, non-specific in BLI]
BLI Screening, KDM7B PHD (KDM7B PHD [1]): NS
BLI Screening, KDM7B Dual (KDM7B Dual (PHD+JmjC)): NS
BLI Screening, KDM7B JmjC (KDM7B JmjC): NS

Compound: CC(C)C[C@@H]1NC(=O)[C@H](Cc2ccc(O)cc2)NC(=O)[C@H](Cc2ccc(O)cc2)NC(=O)CSC[C@@H](C(N)=O)NC(=O)[C@H]([C@@H](C)O)NC(=O)[C@H](CCCNC(=N)N)NC(=O)[C@H](Cc2ccccc2)NC(=O)[C@H](C(C)C)NC(=O)[C@H](C)NC(=O)[C@@H]2CCCN2C(=O)[C@H](Cc2ccc(O)cc2)NC(=O)[C@@H]2CCCN2C(=O)[C@H](Cc2c[nH]cn2)NC(=O)[C@H]([C@@H](C)O)NC1=O [S9A] (HELM PEPTIDE1{[O=C(C[*:3])[*:2]].Y.Y.L.T.H.P.Y.P.A.V.F.R.T.C.[am]}$PEPTIDE1,PEPTIDE1,1:R3-15:R3$$$V2.0; C-terminus assumed)
reduced potency relative to OC9 (KDM7B PHD [2]): much weaker

Compound: CN(C)NC(=O)CCC(=O)O [DAM, daminozide, reference compound]
IC50 (KDM7A dual domain): 251 nM

Compound: YPYILYPSVYTTNC (also: sidechain bridge or staple (positions not given here)) [OC8]
BLI Screening, KDM7B Dual (KDM7B Dual (PHD+JmjC)): -

Compound: CC(C)C[C@@H]1NC(=O)[C@H](Cc2ccc(O)cc2)NC(=O)[C@H](Cc2ccc(O)cc2)NC(=O)CSC[C@@H](C(N)=O)NC(=O)[C@H]([C@@H](C)O)NC(=O)[C@H](CCCNC(=N)N)NC(=O)[C@H](Cc2ccccc2)NC(=O)[C@H](CCCCN)NC(=O)[C@H](CO)NC(=O)[C@@H]2CCCN2C(=O)[C@H](Cc2ccc(O)cc2)NC(=O)[C@@H]2CCCN2C(=O)[C@H](Cc2c[nH]cn2)NC(=O)[C@H]([C@@H](C)O)NC1=O [V10K] (HELM PEPTIDE1{[O=C(C[*:3])[*:2]].Y.Y.L.T.H.P.Y.P.S.K.F.R.T.C.[am]}$PEPTIDE1,PEPTIDE1,1:R3-15:R3$$$V2.0; C-terminus assumed)
Kd (KDM7B PHD [1]; read-out: BLI KD, KDM7B PHD-finger): > 10000 nM
IC50 (KDM7B PHD [2]; read-out: IC50^AS, KDM7B PHD-finger): > 10000 nM

Compound: YIVPSPIWYHWVAC (also: sidechain bridge or staple (positions not given here)) [OC10]
BLI Screening, KDM7B Dual (KDM7B Dual (PHD+JmjC)): -
